Results as given in paper PMC7046553, “Backbone Cyclization and Dimerization of LL-37-Derived Peptides Enhance Antimicrobial Activity and Proteolytic Stability” (Frontiers in Microbiology, 2020).
Where no end group is shown, it is not given here.

Experiments:
[1] = tested on: Candida albicans ATCC 90028; details: ATCC 90028, 5 h
Method: (§1) The three bacterial strains: Escherichia coli ATCC 25922, Pseudomonas aeruginosa ATCC 27853 Staphylococcus aureus ATCC 29213 as well as the fungal strain Candida albicans ATCC 90028 derived from clinical wound infections were obtained from the Department of Clinical Bacteriology at Lund University Hospital.
(§2) Antimicrobial activities of the peptides were evaluated using the two-step microdilution assay ([Strömstedt et al., 2017]), which is designed for testing AMPs without activity-inhibiting components. Briefly, the microbial suspension was washed twice with 10 mM Tris buffer (set to pH 7.4 at 37°C). 96-well plates (U-shaped, untreated polystyrene) were prepared with peptide 2-fold serial dilutions in Tris buffer. The culture density was quantified by OD600, diluted in Tris buffer and 50,000 cells aliquoted to each well in the 96-well plate to a final 100 μl volume. After 5 h of aerobic incubation at 37°C, 5 μl of 20% TSB medium was added to each well (resulting in 1% TSB) and the plates were re-incubated. Growth-inhibition was monitored when controls produced pellet sizes of 2 mm in diameter (close to growth saturation), which equates to 5, 8, 10, and 12 h for E. coli, S. aureus, P. aeruginosa, and C. albicans, respectively. […] The MIC-values in Table 1, are medians from triplicate experiments, while the data presented in the Figure 2 are the same values relative to that of KR-12.

[2] = tested on: Escherichia coli ATCC 25922; details: ATCC 25922, 5 h
Method: as §1, §2

[3] = tested on: Candida albicans ATCC 90028; design: method as in Gunasekera et al., 2018; details: ref Gunasekera et al., 2018; cited from earlier work
[4] = tested on: Pseudomonas aeruginosa ATCC 27853; design: method as in Gunasekera et al., 2018; details: ref Gunasekera et al., 2018; cited from earlier work
[5] = tested on: Escherichia coli; design: method as in Wang, 2008; details: ref Wang, 2008; cited from earlier work
[6] = tested on: Human type A RBCs; assay: Hemolysis assay; format: cell-based
Method: Peptides were dissolved in water and serially diluted in PBS to give 20 μl test solutions in a 96-well U-bottomed microtiter plate (Nunc). Human type A RBCs (red blood cells) were washed with PBS and centrifuged at 1500 g for 60 s in a microcentrifuge several times until a clear supernatant was obtained. A 0.25% suspension of washed RBCs in PBS (100 μl) was added to the peptide solutions. The plate was incubated at 37°C for 1 h and centrifuged at 150 g for 5 min. Aliquots of 100 μl were transferred to a 96-well flat-bottomed microtiter plate (Falcon) and the absorbance was measured at 405 nm with an automatic Multiskan Ascent plate reader (Labsystems). The amount of hemolysis was calculated as the percentage of maximum lysis (1% Triton X-100 control) after adjusting for minimum lysis (PBS control). Synthetic melittin (Sigma) was used for comparison. The hemolytic dose necessary to lyse 50% of the RBCs (HD50) was calculated using the regression constant from the linear portion of the hemolytic titration curve (GraphPad Prism software).

[7] = Liposome leakage assay, fungal liposomes; design: species or system S. cerevisiae; details: 50% leakage, 45 min incubation, 37°C; read-out: EC50 fung. (liposome leakage)
Method: FIGURE 3 Peptide induced liposome leakage. Bacterial liposomes based on E. coli polar lipid extract (A,B), and fungal liposomes of S. cerevisiae polar lipid extract and ergosterol (7:3) (C), were monitored for fluorescent marker leakage over 45 min of incubation with peptides. (A) Compares membrane disrupting efficacy at the 45 min mark for the parent peptide, monomer, lysine substitutions and dimerization, (B) effects of linker length, monomer directionality and backbone cyclization, (C) effect on KR-12 directionality and dimerization on a fungal liposome system. […] Results are means from triplicate experiments with standard deviations.
The liposome production and the liposome leakage assay were performed similar to what has previously been described ([Strömstedt et al., 2016]). […] Membrane permeability was measured by monitoring carboxyfluorescein efflux from the liposomes to the external low concentration environment, resulting in loss of self-quenching and an increased fluorescence signal. […] The effect of each peptide concentration on liposome integrity was monitored for 45 min, at which point the leakage had largely subsided. […] EC50-values are calculated from sigmoidal dose-response curves of leakage percentage as a function of the peptide concentration (log10).

[8] = tested on: Escherichia coli ATCC 25922; design: method as in Gunasekera et al., 2018; details: ref Gunasekera et al., 2018; cited from earlier work
[9] = tested on: Staphylococcus aureus ATCC 29213; design: method as in Gunasekera et al., 2018; details: ref Gunasekera et al., 2018; cited from earlier work
[10] = tested on: human lymphoma cell line U-937 GTB; details: cited from earlier work
[11] = Liposome leakage assay, bacterial liposomes; design: species or system E. coli
Method: Membrane disruption was assayed by liposome leakage. […] E. coli and Saccharomyces cerevisiae membrane lipids were reconstituted into large unilamellar vesicles, trapping a self-quenching fluorescent marker.
Polar lipid extract from E. coli, and S. cerevisiae (Avanti Polar Lipids, Alabaster, AL-US) were used, the latter supplemented with ergosterol (Sigma-Aldrich) at a 7:3 molar ratio. In brief, dry lipid films were deposited on round-bottom flask walls and re-suspended in Tris buffer containing of 100 mM 5(6)-carboxyfluorescein. Multilamellar structures and polydispersity were reduced by repeated extrusion through 100-nm polycarbonate membranes. Un-trapped carboxyfluorescein was removed by gel separation. Membrane permeability was measured by monitoring carboxyfluorescein efflux from the liposomes to the external low concentration environment, resulting in loss of self-quenching and an increased fluorescence signal. The leakage experiments were performed on a 96-well plate format. […] EC50-values are calculated from sigmoidal dose-response curves of leakage percentage as a function of the peptide concentration (log10).

## KRIVQRIKDFLR [KR-12]
[1]
  MIC fung.: 10 µM
[2]
  MIC bact.: 2.5 µM
[3]
  MIC against Candida albicans: 10 µM
[4]
  MIC against Pseudomonas aeruginosa: 10 µM
[5]
  MIC against Escherichia coli: 40 µM
[6]
  HC50 (hemolysis): > 80 µM
[7]
  EC50: 950 nM
[8]
  MIC against Escherichia coli: 2.5 µM
[9]
  MIC against Staphylococcus aureus: 10 µM
[10]; at the maximum concentration of 80 μM, ref Gunasekera et al., 2018
  loss of cell viability: 13%
[10]
  IC50: > 80 µM
[11]; 50% leakage, 45 min incubation, 37°C, read-out: EC50 bact. (liposome leakage)
  EC50: ~25 µM
[11]; E. coli liposomes
  fold higher concentration than LL-37 required to reach 50% leakage: 38 fold
